Measured values: publication PMC11033320, “Activation of p53 signaling and regression of breast and prostate carcinoma cells by spirooxindole-benzimidazole small molecules” (Frontiers in Pharmacology, 2024)

Legend:
[1] = tested on: HL-60(TB); experiment: NCI anticancer screening, Leukemia HL-60(TB); assay type: cell-based; details: Homo sapiens, read-out: % Growth Inhibition (GI %)
Excerpt: (§1) The compound has been processed according to standard method NCI-60 Human Tumor Cell Lines Screen for organic compound at development therapeutic program (DTP). Requests for access to this national resource can be submitted online at: […]

[2] = tested on: LOX IMVI; experiment: NCI anticancer screening, Melanoma LOX IMVI; assay type: cell-based; details: Homo sapiens, read-out: % Growth Inhibition (GI %)
Excerpt: as §1

[3] = MTT cytotoxicity to normal human lung fibroblast Wi-38 cell line; assay type: cell-based; details: Wi-38 normal lung fibroblast cells, mean ± SEM, read-out: percentage of Wi-38 viability
Method: Normal human lung fibroblast Wi-38 cell line was used to detect cytotoxicity of the studied compounds (Table S8). Wi-38 cell line was cultured in DMEM medium-contained 10% fetal bovine serum (FBS), seeded as 5x10^3 cells per well in 96-well cell culture plate and incubated at 37 °C in 5% CO2 incubator. After 24 h for cell attachment, serial concentrations of the synthetic compounds were incubated with Wi-38 cells for 72 h. Cell viability was assayed by MTT method (Mosmann, 1983). Twenty microliters of 5 mg/ml MTT (Sigma, USA) was added to each well and the plate was incubated at 37 °C for 3 h. Then MTT solution was removed, 100 µl DMSO was added and the absorbance of each well was measured with a microplate reader (BMG LabTech, Germany) at 570 nm.

[4] = tested on: SK-OV-3; experiment: NCI anticancer screening, Ovarian Cancer SK-OV-3; assay type: cell-based; details: Homo sapiens; SK-OV-3, 10 μM; read-out: % Growth Inhibition (GI %)
Excerpt: as §1

[5] = tested on: HS 578T; experiment: NCI anticancer screening, Breast Cancer HS 578T; assay type: cell-based; details: Homo sapiens, read-out: % Growth Inhibition (GI %)
Excerpt: as §1

[6] = tested on: COLO 205; experiment: NCI anticancer screening, Colon Cancer COLO 205; assay type: cell-based; details: Homo sapiens; COLO 205, 10 μM; read-out: % Growth Inhibition (GI %)
Excerpt: as §1

[7] = tested on: NCI-H522; experiment: NCI anticancer screening, Non-Small Cell Lung Cancer NCI-H522; assay type: cell-based; details: Homo sapiens; NCI-H522, 10 μM; read-out: % Growth Inhibition (GI %)
Excerpt: as §1

[8] = tested on: A549/ATCC; experiment: NCI anticancer screening, Non-Small Cell Lung Cancer A549/ATCC; assay type: cell-based; details: Homo sapiens, read-out: % Growth Inhibition (GI %)
Excerpt: as §1

[9] = tested on: HCT-15; experiment: NCI anticancer screening, Colon Cancer HCT-15; assay type: cell-based; details: Homo sapiens; HCT-15, 10 μM; read-out: % Growth Inhibition (GI %)
Excerpt: as §1

[10] = tested on: NCI-H23; experiment: NCI anticancer screening, Non-Small Cell Lung Cancer NCI-H23; assay type: cell-based; details: Homo sapiens; NCI-H23, 10 μM; read-out: % Growth Inhibition (GI %)
Excerpt: as §1

[11] = tested on: A498; experiment: NCI anticancer screening, Renal Cancer A498; assay type: cell-based; details: Homo sapiens; A498, 10 μM; read-out: % Growth Inhibition (GI %)
Excerpt: as §1

[12] = tested on: SN12C; experiment: NCI anticancer screening, Renal Cancer SN12C; assay type: cell-based; details: Homo sapiens, read-out: % Growth Inhibition (GI %)
Excerpt: as §1

[13] = tested on: OVCAR-3; experiment: NCI anticancer screening, Ovarian Cancer OVCAR-3; assay type: cell-based; details: Homo sapiens; OVCAR-3, 10 μM; read-out: % Growth Inhibition (GI %)
Excerpt: as §1

[14] = tested on: SF-539; experiment: NCI anticancer screening, CNS Cancer SF-539; assay type: cell-based; details: Homo sapiens; SF-539, 10 μM; read-out: % Growth Inhibition (GI %)
Excerpt: as §1

[15] = tested on: U251; experiment: NCI anticancer screening, CNS Cancer U251; assay type: cell-based; details: Homo sapiens, U-251; U251, 10 μM; read-out: % Growth Inhibition (GI %)
Excerpt: as §1

[16] = tested on: MCF7; experiment: NCI anticancer screening, Breast Cancer MCF7; assay type: cell-based; details: Homo sapiens; MCF7, 10 μM; read-out: % Growth Inhibition (GI %)
Excerpt: as §1

[17] = tested on: SK-MEL-5; experiment: NCI anticancer screening, Melanoma SK-MEL-5; assay type: cell-based; details: Homo sapiens; SK-MEL-5, 10 μM; read-out: % Growth Inhibition (GI %)
Excerpt: as §1

[18] = tested on: NCI-H322M; experiment: NCI anticancer screening, Non-Small Cell Lung Cancer NCI-H322M; assay type: cell-based; details: Homo sapiens, read-out: % Growth Inhibition (GI %)
Excerpt: as §1

[19] = tested on: KM12; experiment: NCI anticancer screening, Colon Cancer KM12; assay type: cell-based; details: Homo sapiens; KM12, 10 μM; read-out: % Growth Inhibition (GI %)
Excerpt: as §1

[20] = tested on: MDA-MB-468; experiment: NCI anticancer screening, Breast Cancer MDA-MB-468; assay type: cell-based; details: Homo sapiens, read-out: % Growth Inhibition (GI %)
Excerpt: as §1

[21] = tested on: HT29; experiment: NCI anticancer screening, Colon Cancer HT29; assay type: cell-based; details: Homo sapiens, HT-29; HT29, 10 μM; read-out: % Growth Inhibition (GI %)
Excerpt: as §1

[22] = tested on: UACC-62; experiment: NCI anticancer screening, Melanoma UACC-62; assay type: cell-based; details: Homo sapiens; UACC-62, 10 μM; read-out: % Growth Inhibition (GI %)
Excerpt: as §1

[23] = tested on: SF-295; experiment: NCI anticancer screening, CNS Cancer SF-295; assay type: cell-based; details: Homo sapiens; SF-295, 10 μM; read-out: % Growth Inhibition (GI %)
Excerpt: as §1

[24] = tested on: T-47D; experiment: NCI anticancer screening, Breast Cancer T-47D; assay type: cell-based; details: Homo sapiens, T47D, read-out: % Growth Inhibition (GI %)
Excerpt: as §1

[25] = biological target: T1, Mdm2 (residues 1–118 T47W) (Homo sapiens, UniProt Q00987, T47W); experiment: MDM2 binding by microscale thermophoresis (MST)
T1 construct: Mdm2 (residues 1–118 T47W; 500 nM)
Method: MST is a complementary biophysical assay to assess the binding of a small molecule to its receptor. […] Experiments were performed in 50 mM phosphate buffer at pH 7.4 containing 150 mM NaCl, 5 mM DTT, and 5% DMSO. […] Kd values and uncertainties were calculated using the MO Affinity Analysis software.

T1 sequence (Q00987 1-118 T47W): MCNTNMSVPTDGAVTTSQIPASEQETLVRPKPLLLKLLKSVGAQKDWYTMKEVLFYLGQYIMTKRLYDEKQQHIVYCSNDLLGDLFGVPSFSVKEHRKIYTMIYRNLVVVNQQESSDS

SMILES	inhibition at 10 µM [1]	inhibition at 10 µM [2]	viability at 72 h, 5 µM [3]	inhibition at 10 µM [4]	inhibition at 10 µM [5]	inhibition at 10 µM [6]	inhibition at 10 µM [7]	melting point	inhibition at 10 µM [8]	inhibition at 10 µM [9]	inhibition at 10 µM [10]	inhibition at 10 µM [11]	inhibition at 10 µM [12]	inhibition at 10 µM [13]	inhibition at 10 µM [14]	inhibition at 10 µM [15]	inhibition at 10 µM [16]	inhibition at 10 µM [17]	inhibition at 10 µM [18]	inhibition at 10 µM [19]	other results
COc1cc([C@@H]2C3CSCN3[C@]3(C(=O)Nc4ccccc43)[C@H]2C(=O)c2nc3ccccc3[nH]2)cc(OC)c1OC (stereo partly drawn) [Compound 6i, (3S,6′R)-6'-(1H-Benzo [d]imidazole-2-carbonyl)-7'-(3,4,5-trimethoxyphenyl)-3′,6′,7′,7a′-tetrahydro-1′H-spiro [indoline-3.5′-pyrrolo [1,2-c]thiazol]-2-one]	103%	101%	43.3 ± 0.917%	102%	102%	114%	88.3%	245 to 247 °C	89.4%	105%	104%	81.7%	99%	109%	99.6%	103%	99.9%	103%	93.1%	101%	inhibition at 10 µM [20]: 99.6%; inhibition at 10 µM [21]: 107%; inhibition at 10 µM [22]: 87.4%; inhibition at 10 µM [23]: 95.2%; inhibition at 10 µM [24]: 102%
O=C(c1nc2ccccc2[nH]1)[C@H]1[C@H](c2ccc(F)cc2)C2CSCN2[C@]12C(=O)Nc1ccccc12 (stereo partly drawn) [Compound 6f, (3S,6′R)-6'-(1H-Benzo [d]imidazole-2-carbonyl)-7'-(4-fluorophenyl)-3′,6′,7′,7a′-tetrahydro-1′H-spiro [indoline-3.5′-pyrrolo [1,2-c]thiazol]-2-one]	93.1%	94.8%	47.39 ± 0.092%	102%	98%	109%	79.5%	233 to 235 °C	78.6%	93.6%	98%	57.2%	91.1%	101%	97.7%	93.5%	87.4%	94.7%	90.4%	88.7%	inhibition at 10 µM [20]: 94.2%; inhibition at 10 µM [21]: 85.7%; inhibition at 10 µM [22]: 78.1%; inhibition at 10 µM [23]: 77.9%; inhibition at 10 µM [24]: 84.1%
O=C(c1nc2ccccc2[nH]1)[C@H]1[C@H](c2cccs2)C2CSCN2[C@]12C(=O)Nc1ccccc12 (stereo partly drawn) [Compound 6e, (3S,6′R)-6'-(1H-Benzo [d]imidazole-2-carbonyl)-7'-(thiophen-2-yl)-3′,6′,7′,7a′-tetrahydro-1′H-spiro [indoline-3.5′-pyrrolo [1,2-c]thiazol]-2-one]	94.1%	97.5%	51.7 ± 1.28%	101%	101%	112%	91.5%	240 to 242 °C	87.1%	100%	103%	79.7%	97.5%	105%	101%	100%	94.5%	99%	97.7%	98.8%	Kd [25]: 113 µM; inhibition at 10 µM [20]: 100%; inhibition at 10 µM [21]: 101%; inhibition at 10 µM [22]: 90.8%; inhibition at 10 µM [23]: 92.6%; inhibition at 10 µM [24]: 90.5%
